Patent US9687522B2, “Methods of treating a subject afflicted with an autoimmune disease using predictive biomarkers of clinical response to glatiramer acetate therapy in multiple sclerosis” (TEVA PHARMACEUTICAL INDUSTRIES, LTD., priority 2010, dated 2017)

Tests used:
[1] = system: relapsing-remitting MS (RR-MS) patients; experiment: Prospective 2-year study of GA-treated RR-MS patients: ARR and EDSS; type: in vivo, human
Procedure: This is a prospective study in which sixty-two relapsing-remitting MS (RR-MS) patients treated with GA were classified clinically as GA-R (N=42) or GA-HR/NR (N=20) after 2 years of treatment. Cytokine levels, brain-derived neurotrophic factor (BDNF) levels, and T-cell proliferation to GA were analyzed at baseline, 3, 6, 9-12 and 24 months and assessed for their predictive value of clinical response after 2 years of treatment.
Sixty-two patients diagnosed with definite RR-MS (relapsing-remitting MS) according to the McDonald criteria (33) were included in the study. Following recruitment, the patients were treated with GA for at least 2 years. Subjects were closely followed up at the University of Medicine and Dentistry New Jersey (UMDNJ)-Robert Wood Johnson Medical School, University of Maryland Center for MS, the Gimbel MS Center, Teaneck, N.J. and the Carolina Medical Center-MS Center, Charlotte, N.C. Fifty patients were females with a mean age of 41±10.3 years and 12 were males with a mean age of 39.0±11.9 years. Patients had at least one relapse during the year prior to initiation of GA therapy (Table 2). After at least 2 years on GA therapy, patients were classified as GA-R (n=42) or GA-HR/NR (n=20) based on a clinical criteria more stringent than those recently reported in the literature. (34) A responder (R) is a patient with an annual relapse rate (ARR)<0.5 and no evidence of disease progression as measured by EDSS (expanded disability status scale). A hypo/non-responder (HR/NR) is a patient with an ARR>0.5 and/or with progression in the EDSS of at least 1 point sustained for 6 months (Table 3).
The patients were classified as GA-responders or hypo/non-responders after being treated with GA for at least 24 months, based on their ARR and progression in disability while on treatment (Tables 1 and 3). The mean disease duration was 8.3±6.1 years for the GA-R group and 12.2±8.2 years for GA-HR/NR group. The mean treatment duration was 26.4±6.6 months for the GA-R group and 26.1±5.9 months for the GA-HR/NR group.

IL-17 = IL-17 by ELISA in ex-vivo PBMC supernatant of GA-treated MS patients; type: cell-based, human
Procedure: (§1) Approximately 60 cc of blood was obtained by venipuncture from each MS patient pre-treatment and at successive time points during treatment (3 months, 6 months, 9-12 months and 24 months). PBMC were purified using Ficoll-Hypaque gradients as described in the supplier's protocol (ICN Biomedicals Inc. Ohio, USA). Samples from collaborating centers were sent via overnight FedEx™ delivery at room temperature and processed immediately upon arrival.
(§2) 2×10^5 PBMC/well were seeded in 96 well U-bottom micro titer plate in the absence of antigen (unstimulated condition) (US) or the presence of GA at 40 and 100 μg/ml (Teva Pharmaceutical Industries, Ltd., Israel), tetanus toxoid (TT 5 μg) obtained from UMASS (University of Mass, Worcester, Mass.). The latter was used as a control antigen. Supernatants were collected from cultured cells at days 1, 3 and 5 for various assays. After 5 days, 1 μCi ^3H-thymidine was added. Cells were harvested 18 hours later using TOMTEC cell harvester (TOMTEC, Hamden Conn.). Incorporated radioactivity was measured using a liquid Scintillation counter (Wallac MicroBeta Trilux, PerkinElmer, Boston, Mass.).
(§3) Interleukin-18 and caspase-1 levels were detected by human ELISA kits (Sandwich ELISA, Bender Nedaystems, USA). The sensitivity of the ELISA was 9.2 and 3.3 pg/ml for IL-18 and caspase-1 respectively. TGF-β, TNF-α, IL-4, IFN-γ, IL-17 and IL-10 levels were detected by human ELISA kits from ebioscience (San Diego Calif., 92121 USA). The sensitivity of the ebioscience kits were 60 pg/ml, 4 pg/ml, 2 pg/ml, 4 pg/ml, 4 pg/ml and 2 pg/ml respectively. BDNF was detected by the Human BDNF ELISA kit from Chemicon International (catalog #CYT306). The sensitivity of the BDNF ELISA was 7.8 pg/ml. […] Duplicates should be within 20% of the mean.

TNF-α = experiment: Serum TNF-α by ELISA in GA-treated MS patients; type: in vivo, human
From the text: as §1, §3

PBMC = experiment: Lymphoproliferation assay (3H-thymidine) of ex-vivo PBMC; type: cell-based, human
Procedure: as §1, §2

IFN-γ = experiment: Serum IFN-γ by ELISA in GA-treated MS patients; type: in vivo, human
From the text: as §1, §3

BDNF = BDNF by ELISA in supernatant of GA-stimulated PBMC; type: cell-based, human
Procedure: as §1
as §2, with “Cells were harvested 18 hours later using TOMTEC cell harvester (TOMTEC, Hamden Conn.).” left out
Interleukin-18 and caspase-1 levels were detected by human ELISA kits (Sandwich ELISA, Bender Nedaystems, USA). […] TGF-β, TNF-α, IL-4, IFN-γ, IL-17 and IL-10 levels were detected by human ELISA kits from ebioscience (San Diego Calif., 92121 USA). […] BDNF was detected by the Human BDNF ELISA kit from Chemicon International (catalog #CYT306). […]

Glatiramer acetate [GA]
Mean ARR ([1]; GA-HR/NR, 24 mo Rx): 0.75 ± 0.50 | Mean EDSS ([1]; GA-HR/NR, 24 mo Rx): 3.2 ± 1.37 | Mean ARR ([1]; GA-HR/NR, Pre-Rx): 0.80 ± 0.49 | Mean EDSS ([1]; GA-HR/NR, Pre-Rx): 1.95 ± 0.95 | increase in the EDSS ([1]; GA-HR/NR, during treatment): 1.12 point | reduction in the ARR ([1]; GA-HR/NR, during treatment): 6.25% | Mean ARR ([1]; GA-R, 24 mo Rx): 0.14 ± 0.25 | Mean EDSS ([1]; GA-R, 24 mo Rx): 1.57 ± 1.0 | Mean ARR ([1]; GA-R, Pre-Rx): 0.67 ± 0.46 | Mean EDSS ([1]; GA-R, Pre-Rx): 2.18 ± 1.08 | decrease in the EDSS ([1]; GA-R, during treatment): 0.61 point | reduction in the ARR ([1]; GA-R, during treatment): 79% | Supernatant IL-17 level (IL-17; HR/NR, 3 mo): 160 ± 25 pg/mL | Supernatant IL-17 level (IL-17; HR/NR, 6 mo): 146 ± 25 pg/mL | Supernatant IL-17 level (IL-17; HR/NR, 9-12 mo): 129 ± 7.3 pg/mL | Supernatant IL-17 level (IL-17; HR/NR, 24 mo): 179 ± 21 pg/mL | Supernatant IL-17 level (IL-17; HR/NR, Pre-Rx): 178 ± 25 pg/mL | Supernatant IL-17 level (IL-17; R, 3 mo): 184 ± 40 pg/mL | Supernatant IL-17 level (IL-17; R, 6 mo): 60 ± 35 pg/mL | Supernatant IL-17 level (IL-17; R, 9-12 mo): 134 ± 12 pg/mL | Supernatant IL-17 level (IL-17; R, 24 mo): 167 ± 18 pg/mL | Supernatant IL-17 level (IL-17; R, Pre-Rx): 176 ± 31 pg/mL | Serum TNF-α level (TNF-α; HR, 3 mo): 56 ± 5.0 pg/mL | Serum TNF-α level (TNF-α; HR, 6 mo): 55 ± 7.0 pg/mL | Serum TNF-α level (TNF-α; HR, 9-12 mo): 59 ± 5.18 pg/mL | Serum TNF-α level (TNF-α; HR, 24 mo): 52.4 ± 9.64 pg/mL | Serum TNF-α level (TNF-α; HR, Pre-Rx): 51 ± 3.0 pg/mL | Serum TNF-α level (TNF-α; R, 3 mo): 47 ± 3.3 pg/mL | Serum TNF-α level (TNF-α; R, 6 mo): 44 ± 4.6 pg/mL | Serum TNF-α level (TNF-α; R, 9-12 mo): 54 ± 4.24 pg/mL | Serum TNF-α level (TNF-α; R, 24 mo): 50.13 ± 1.5 pg/mL | Serum TNF-α level (TNF-α; R, Pre-Rx): 57 ± 3.6 pg/mL | Δ TNF-alpha 6 months, Median (Non-Responders) (TNF-α; serum, change from baseline): 1 | Δ TNF-alpha 6 months, Median (Responders) (TNF-α; serum, change from baseline): −14 | ex-vivo PBMC proliferative response over the course of GA treatment (PBMC; antigens GA 40 and 100 μg/ml, TT 5 μg/ml, ΔCPM): initial increase in the proliferative response to GA and TT at 3 months during treatment followed by a decline after 6 months of treatment | PBMC proliferation, GA-R versus GA-HR/NR (PBMC; before or during treatment at 3, 6, 12 months or 2 years, p >0.05): no difference in PBMC proliferation to GA or TT between GA-R and GA-HR/NR | Serum IFN-γ level (IFN-γ; HR/NR, 3 mo): 27 ± 1.45 pg/mL | Serum IFN-γ level (IFN-γ; HR/NR, 6 mo): 26 ± 1.53 pg/mL | Serum IFN-γ level (IFN-γ; HR/NR, 9-12 mo): 52 ± 5.8 pg/mL | Serum IFN-γ level (IFN-γ; HR/NR, 24 mo): 45 ± 5.3 pg/mL | Serum IFN-γ level (IFN-γ; HR/NR, Pre-Rx): 25 ± 1.7 pg/mL | Serum IFN-γ level (IFN-γ; R, 3 mo): 25 ± 2.1 pg/mL | Serum IFN-γ level (IFN-γ; R, 6 mo): 24 ± 1.9 pg/mL | Serum IFN-γ level (IFN-γ; R, 9-12 mo): 48 ± 6.3 pg/mL | Serum IFN-γ level (IFN-γ; R, 24 mo): 45 ± 3.8 pg/mL | Serum IFN-γ level (IFN-γ; R, Pre-Rx): 29 ± 2.3 pg/mL | BDNF production with GA used as ex-vivo stimulus (BDNF; GA versus TT as stimulus of PBMC): slightly higher level compared to TT | supernatant BDNF levels from GA-stimulated PBMCs (BDNF; GA-R group, 3 months, p=0.01, not in the GA HR/NR group): significant increase at 3 months during treatment compared to baseline
